In US20050239656A1, “Pyridine compounds or salts thereof and herbicides containing the same” (priority 2002, published 2005):

How the values were obtained:
rice = experiment: Test Example 2: soil surface treatment, upland pot test; assay type: in vivo, Oryza sativa L.; details: observed 20th to 28th day
How it was run: (§1)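 Seeds were sown in upland field soil in 1/170,000 ha pots. One day later, a wettable powder or emulsifiable concentrate at a predetermined active-ingredient rate, diluted in water at 1,500 L/ha, was sprayed onto the soil surface. Growth control (%) was scored visually 20–28 days after application (0 = untreated, 100 = complete kill).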

barnyardgrass [1] = experiment: Test Example 3: paddy pot test, application under submerged conditions; assay type: in vivo, Echinochloa crus-galli L.; details: submerged application at 0.5 leaf stage, visually observed 14 days after application, 0 = non-treated, 100 = complete kill
How it was run: (§2)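 Paddy soil pots; seeds sown, lightly covered; flooded 0.5–1 cm in greenhouse; wapato tubers planted day 1–2; flood raised to 3–4 cm. Submerged pipette application at 0.5 leaf / primary leaf stage. Visual score day 14, 0–100%.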

crabgrass = experiment: Test Example 2: soil surface treatment, upland pot test; assay type: in vivo, Digitaria sanguinalis L.; details: observed 20th to 28th day
How it was run: as §1

prickly sida = experiment: as above; assay type: in vivo, Sida spinosa L.; details: observed 20th to 28th day
How it was run: as §1

velvetleaf = experiment: as above; assay type: in vivo, Abutilon theophrasti MEDIC.; details: observed 20th to 28th day
How it was run: as §1

barnyardgrass [2] = experiment: as above; assay type: in vivo, Echinochloa crus-galli L.; details: observed 20th to 28th day
How it was run: as §1

redroot pigweed = experiment: as above; assay type: in vivo, Amaranthus retroflexus L.; details: observed 20th to 28th day
How it was run: as §1

green foxtail = experiment: as above; assay type: in vivo, Setaria viridis L.; details: observed 20th to 28th day
How it was run: as §1

japanese bulrush = experiment: Test Example 3: paddy pot test, application under submerged conditions; assay type: in vivo, Scirpus juncoides; details: submerged application at 0.5 leaf stage, visually observed 14 days after application, 0 = non-treated, 100 = complete kill
How it was run: as §2

corn = experiment: Test Example 2: soil surface treatment, upland pot test; assay type: in vivo, Zea mays L.; details: observed 20th to 28th day
How it was run: as §1

wheat = experiment: as above; assay type: in vivo, Triticum spp.; details: observed 20th to 28th day
Source text: Upland field soil was put into a 1/170,000 ha pot, and seed of various plants (barnyardgrass, crabgrass, green foxtail, redroot pigweed, prickly sida, velvetleaf, rice, wheat, corn, soybean) were sown. On the 1st day after the sowing, a wettable powder or emulsifiable concentrate having the compound of the present invention formulated in accordance with a usual formulation method, was weighed so that the active ingredient would be a predetermined amount, and diluted with water in an amount of 1,500 L/ha. The herbicide thus adjusted was applied by a small size sprayer for soil surface treatment. On the 20th to 28th days after the application of the herbicide, the growth of the respective plants was visually observed, and the herbicidal effects were evaluated by the growth controlling degrees (%) ranging from 0 (equivalent to the non-treated plot) to 100 (complete kill), whereby the results shown in Table 4, were obtained.

rice (var. Nihonbare) = experiment: Test Example 3: paddy pot test, transplanted rice; assay type: in vivo, Oryza sativa L.; details: applied 4th day after transplantation, visually observed 21st day after application, 0 = non-treated, 100 = complete kill
How it was run: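 Visual crop-injury rating (0 = as untreated, 100 = complete kill, %) taken 21 days post-application. Treatment: formulated compound, water-diluted, pipetted into 3–4 cm flood water at a preset active-ingredient dose, 4 days after transplanting 2-leaf Nihonbare rice 3 cm deep in puddled paddy soil.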

soybean = experiment: Test Example 2: soil surface treatment, upland pot test; assay type: in vivo, Glycine max Merr.; details: observed 20th to 28th day
How it was run: as §1

Row | SMILES | Growth controlling degree (%) Rice (rice; active ingredient 250 g/ha) | Growth controlling degree (%) Barnyardgrass (barnyardgrass [1]; active ingredient 250 g/ha) | Growth controlling degree (%) Crabgrass (crabgrass; active ingredient 250 g/ha) | Growth controlling degree (%) Prickly sida (prickly sida; active ingredient 250 g/ha) | Growth controlling degree (%) Velvetleaf (velvetleaf; active ingredient 250 g/ha) | Growth controlling degree (%) Barnyardgrass (barnyardgrass [2]; active ingredient 250 g/ha) | Growth controlling degree (%) Redroot pigweed (redroot pigweed; active ingredient 250 g/ha) | Growth controlling degree (%) Green foxtail (green foxtail; active ingredient 250 g/ha) | Growth controlling degree (%) Japanese bulrush (japanese bulrush; active ingredient 250 g/ha) | Growth controlling degree (%) Corn (corn; active ingredient 250 g/ha) | Growth controlling degree (%) wheat (wheat; active ingredient 250 g/ha) | Growth controlling degree (%) Rice (rice (var. Nihonbare); active ingredient 250 g/ha) | Growth controlling degree (%) Soyabean (soybean; active ingredient 250 g/ha) | other results
1 | CC(C)C(c1cnccc1C(F)(F)F)N(C)S(=O)(=O)C=Cc1ccccc1 (racemic) [I-135] | – | – | – | – | – | – | – | – | – | – | – | – | – | Growth controlling degree (%) Rice (rice; active ingredient 500 g/ha): 20%; Growth controlling degree (%) Barnyardgrass (barnyardgrass [1]; active ingredient 500 g/ha): 98%; Growth controlling degree (%) Crabgrass (crabgrass; active ingredient 500 g/ha): 70%; Growth controlling degree (%) Prickly sida (prickly sida; active ingredient 500 g/ha): 50%; Growth controlling degree (%) Velvetleaf (velvetleaf; active ingredient 500 g/ha): 30%; Growth controlling degree (%) Barnyardgrass (barnyardgrass [2]; active ingredient 500 g/ha): 80%; Growth controlling degree (%) Redroot pigweed (redroot pigweed; active ingredient 500 g/ha): 20%; Growth controlling degree (%) Green foxtail (green foxtail; active ingredient 500 g/ha): 70%; Growth controlling degree (%) Japanese bulrush (japanese bulrush; active ingredient 500 g/ha): 100%; Growth controlling degree (%) Corn (corn; active ingredient 500 g/ha): 0%; Growth controlling degree (%) wheat (wheat; active ingredient 500 g/ha): 10%; Growth controlling degree (%) Rice (rice (var. Nihonbare); active ingredient 500 g/ha): 10%; Growth controlling degree (%) Soyabean (soybean; active ingredient 500 g/ha): 0%
2 | CC(C)C(c1cnccc1C(F)(F)F)N(C)S(=O)(=O)c1ccc(Br)cc1 (racemic) [I-136] | 50% | 100% | 90% | 50% | 30% | 70% | 10% | 95% | 70% | 20% | 10% | 0% | 10% | –
3 | CC(C)C(Br)C(=O)N(C)C(c1cnccc1C(F)(F)F)C(C)C (stereo not drawn) [Compound I-197] | – | 100% | – | – | – | – | – | – | 98% | – | – | 0% | – | Growth controlling degree (%) Rice (rice; active ingredient 500 g/ha): 40%; Growth controlling degree (%) Crabgrass (crabgrass; active ingredient 500 g/ha): 100%; Growth controlling degree (%) Prickly sida (prickly sida; active ingredient 500 g/ha): 70%; Growth controlling degree (%) Velvetleaf (velvetleaf; active ingredient 500 g/ha): 50%; Growth controlling degree (%) Barnyardgrass (barnyardgrass [2]; active ingredient 500 g/ha): 100%; Growth controlling degree (%) Redroot pigweed (redroot pigweed; active ingredient 500 g/ha): 90%; Growth controlling degree (%) Green foxtail (green foxtail; active ingredient 500 g/ha): 100%; Growth controlling degree (%) Corn (corn; active ingredient 500 g/ha): 20%; Growth controlling degree (%) wheat (wheat; active ingredient 500 g/ha): 50%; Growth controlling degree (%) Soyabean (soybean; active ingredient 500 g/ha): 10%
4 | CCC(Br)C(=O)N(C)C(c1cnccc1C(F)(F)F)C(C)C (stereo not drawn) [Compound I-202] | 60% | 98% | 100% | 70% | 40% | 100% | 80% | 95% | 98% | 50% | 40% | 10% | 35% | –
5 | CC(C)C(c1cnccc1C(F)(F)F)N(C)C(=O)C1CC1 (stereo not drawn) [Compound I-204] | 100% | 100% | 100% | 95% | 70% | 100% | 95% | 100% | 98% | 70% | 95% | 60% | 70% | –
6 | CC(C)=CC(=O)N(C)C(c1cnccc1C(F)(F)F)C(C)C (stereo not drawn) [Compound I-205] | 70% | 100% | 100% | 70% | 60% | 100% | 80% | 100% | 98% | 40% | 95% | 20% | 30% | –
7 | CC(C)C(c1cnccc1C(F)(F)F)N(C)C(=O)C(F)=Cc1ccccc1 (stereo not drawn) [Compound I-207] | 40% | 98% | 98% | 80% | 50% | 100% | 60% | 100% | 100% | 30% | 20% | 10% | 30% | –
8 | CC(C)C(c1cnccc1C(F)(F)F)N(C)C(=O)C(F)(F)F (stereo not drawn) [Compound I-209] | 70% | 98% | 98% | 70% | 60% | 100% | 60% | 100% | 100% | 50% | 70% | 35% | 50% | –
9 | CC(C)C(c1cnccc1C(F)(F)F)N(C)C(=O)CCBr (stereo not drawn) [I-201] | 70% | 98% | 100% | 60% | 40% | 100% | 70% | 100% | 98% | 40% | 60% | 10% | 40% | –
